Legend:
NIH3T3 cells = assay: MTT assay, 72 h, NIH3T3 (pseudo-normal); type: cell-based; conditions: Mus musculus, mean ± SD
Experimental: (§1) The cytotoxic potential of the synthesized compounds was investigated using the MTT assay after 72 h incubation with a panel of human and murine cancer cell lines, including colorectal carcinoma (HCT116), estrogen receptor-positive breast adenocarcinoma (MCF-7), triple-negative breast adenocarcinoma (MDA-MB-231), epidermoid carcinoma (KB3-1), myeloid leukemia (K562), and glioblastoma (U373), and mouse breast carcinoma (4T1) cells. To assess the selectivity of the compounds, pseudo-normal cell lines—human keratinocytes (HaCaTs) and mouse fibroblasts (NIH3T3s)—were also tested under the same conditions.
(§2) Human breast adenocarcinoma cells of MCF-7 and MDA-MB-231 lines, human glioblastoma cells of U373 line, human chronic myelogenous leukemia cells of K562 line, human colorectal carcinoma cells of HCT116 line, and human epidermoid carcinoma cells of KB3-1 line were kindly donated by a Collection of the Institute for Cancer Research at Vienna Medical University (Vienna, Austria). Human keratinocytes of HaCaT line, murine breast carcinoma cells of 4T1 line, and murine fibroblasts of the NIH3T3 line were obtained from the Cell Collection of the R.E. Kavetsky Institute of Experimental Pathology, Oncology and Radiobiology of the National Academy of Sciences of Ukraine (Kyiv, Ukraine). MCF-7, MDA-MB-231, U373, K562, HaCaT, and NIH3T3 cells were cultured in DMEM medium (Sigma-Aldrich, Burlington, MA, USA) supplemented with 2 mM L-glutamine, 4500 mg/L glucose, and 1 mM sodium pyruvate. HCT116 and KB3-1 cells were maintained in RPMI-1640 medium supplemented with 2 mM L-glutamine (Sigma-Aldrich, USA). Both media were supplemented with 10% fetal bovine serum (Sigma-Aldrich, USA). All cell lines were incubated at 37 °C in a humidified atmosphere containing 5% CO2.
(§3) The substrate cells were seeded at a density of 5000 cells per 100 µL, while suspension K562 cells were seeded at 15,000 cells per 100 µL in 96-well plates and incubated overnight. Doxorubicin (Dox, Sigma-Aldrich, USA) was used as a reference drug. Studied substances were then added in 100 µL of culture medium, and the cells were further incubated for 72 h. Subsequently, 20 µL of MTT solution (5 mg/mL, Sigma-Aldrich, USA) was added to each well and incubated for 2–4 h. Formazan crystals were then solubilized by adding dimethyl sulfoxide (Sigma-Aldrich, USA). Absorbance was measured using a BioTek ELx800 Absorbance Reader (BioTek Instruments, Inc., Winooski, VT, USA). The results were analyzed and illustrated using GraphPad Prism (version 8.0.1; GraphPad Software, San Diego, CA, USA) and presented as a mean (M) ± standard deviation (SD). The IC50 values of the compounds were determined using nonlinear regression analysis in GraphPad Prism 10.4.2 [40].

HaCaT cells = assay: MTT assay, 72 h, HaCaT (pseudo-normal); type: cell-based; conditions: Homo sapiens, mean ± SD
Experimental: as §1, §2, §3

MCF-7 cells = assay: MTT assay, 72 h, MCF-7; type: cell-based; conditions: Homo sapiens, MCF7, mean ± SD
Experimental: as §1, §2
as §3, with “Doxorubicin (Dox, Sigma-Aldrich, USA) was used as a reference drug.” left out

K562 cells = assay: MTT assay, 72 h, K562; type: cell-based; conditions: Homo sapiens, mean ± SD
Experimental: as §1, §2, §3

KB3-1 cells = assay: MTT assay, 72 h, KB3-1; type: cell-based; conditions: Homo sapiens, KB 3-1, mean ± SD
Experimental: as §1, §2, §3

cancer cell lines = assay: MTT assay, panel of cancer cell lines; type: cell-based; conditions: 72 h, summary over the cancer cell panel, read-out: IC50 for most cancer lines
Experimental: as §1, §3

MDA-MB-231 cells = assay: MTT assay, 72 h, MDA-MB-231; type: cell-based; conditions: Homo sapiens, mean ± SD
Experimental: as §1, §2, §3

HCT116 cells = assay: MTT assay, 72 h, HCT116; type: cell-based; conditions: Homo sapiens, HCT-116, mean ± SD
Experimental: as §1, §2, §3

4T1 cells = assay: MTT assay, 72 h, 4T1; type: cell-based; conditions: Mus musculus, mean ± SD
Experimental: as §1, §2, §3

U373 cells = assay: MTT assay, 72 h, U373; type: cell-based; conditions: Homo sapiens, U373 MG, mean ± SD
Experimental: as §1, §2, §3

PPARγ = system: PPARγ; parameters: method as in PMID 38920636; conditions: cited from earlier work
[1] = system: p53 expression in normal BJ cells; parameters: method as in PMID 38920636; conditions: normal BJ cells ref 34; cited from earlier work
[2] = system: p53 expression in A549 lung cancer cells; parameters: method as in PMID 38920636; conditions: A549 lung cancer cells ref 34; cited from earlier work

Row | Structure (SMILES) | IC50 (MCF-7 cells) [µM] | IC50 (K562 cells) [µM] | IC50 (cancer cell lines) [µM] | IC50 (MDA-MB-231 cells) [µM] | IC50 (HCT116 cells) [µM] | IC50 (4T1 cells) [µM] | IC50 (NIH3T3 cells) [µM] | IC50 (HaCaT cells) [µM] | IC50 (KB3-1 cells) [µM] | IC50 (U373 cells) [µM] | PPARγ modulation (PPARγ) | p53 expression [1] | p53 expression [2]
1 | COc1ccc(N2C(=O)/C(=C/c3ccc(N4CCOCC4)cc3)SC23C(=O)Nc2ccc(Cl)cc23)cc1 (stereo not drawn) [Compound 8, (Z)-5-Chloro-3′-(4-methoxyphenyl)-5′-(4-morpholinobenzylidene)spiro[indoline-3,2′-thiazolidine]-2,4′-dione] | > 100 | > 100 | > 100 | > 100 | > 100 | > 100 | > 100 | > 100 | 75.9 ± 4.21 | > 100 | – | – | –
2 | CCOc1ccc(/C=C2\SC3(C(=O)Nc4ccc(Br)cc43)N(c3ccc(Br)cc3)C2=O)cc1 (stereo not drawn) [Compound 14, (Z)-5-Bromo-3′-(4-bromophenyl)-5′-(4-ethoxybenzylidene)spiro[indoline-3,2′-thiazolidine]-2,4′-dione] | > 100 | > 100 | > 100 | 60.2 ± 0.62 | > 100 | > 100 | > 100 | > 100 | 19.6 ± 0.23 | 89.52 ± 0.81 | – | – | –
3 | CCOc1ccc(/C=C2\SC3(C(=O)Nc4ccc(F)cc43)N(Cc3ccccc3)C2=O)cc1 (stereo not drawn) [Compound 19, (Z)-3′-Benzyl-5′-(4-ethoxybenzylidene)-5-fluorospiro[indoline-3,2′-thiazolidine]-2,4′-dione] | 63.9 ± 0.59 | > 100 | – | 59.3 ± 2.27 | 62.7 ± 0.76 | 60.5 ± 1.84 | 94.35 ± 0.87 | 96.79 ± 0.78 | 35 ± 0.48 | 54.89 ± 0.33 | – | – | –
4 | CC(C)c1ccc(/C=C2\SC3(C(=O)Nc4ccccc43)N(c3ccc(Cl)cc3)C2=O)cc1 (stereo not drawn) [Les-3467] | – | – | – | – | – | – | – | – | – | – | acts as a PPARγ modulator | increasing its levels | decreasing it

Second part, led by results:

Row | IC50 (MCF-7 cells) [µM] | IC50 (K562 cells) [µM] | IC50 (cancer cell lines) [µM] | IC50 (MDA-MB-231 cells) [µM] | IC50 (HCT116 cells) [µM] | IC50 (4T1 cells) [µM] | Structure (SMILES) | IC50 (NIH3T3 cells) [µM] | IC50 (HaCaT cells) [µM] | IC50 (KB3-1 cells) [µM] | IC50 (U373 cells) [µM] | PPARγ modulation (PPARγ) | p53 expression [1] | p53 expression [2]
5 | 6.64 ± 0.39 | 67.9 ± 0.81 | – | 13.5 ± 2.21 | 8.24 ± 0.26 | 66 ± 4.48 | CC(C)(C)c1ccc(/C=C2\SC3(C(=O)Nc4ccc(Cl)cc43)N(Cc3ccccc3)C2=O)cc1 (stereo not drawn) [Compound 17, (Z)-3′-Benzyl-5′-(4-(tert-butyl)benzylidene)-5-chlorospiro[indoline-3,2′-thiazolidine]-2,4′-dione] | 91 ± 1.34 | 10.6 ± 0.21 | 5.85 ± 0.42 | 32.26 ± 0.25 | – | – | –
6 | 6.99 ± 0.16 | 37.4 ± 0.49 | 6.67 to 8.37 | 6.67 ± 0.15 | 8.37 ± 0.51 | 46.7 ± 1.19 | CC(C)(C)c1ccc(/C=C2\SC3(C(=O)Nc4ccc(F)cc43)N(Cc3ccccc3)C2=O)cc1 (stereo not drawn) [Compound 18, (Z)-3′-Benzyl-5′-(4-(tert-butyl)benzylidene)-5-fluorospiro[indoline-3,2′-thiazolidine]-2,4′-dione] | 98.39 ± 0.66 | > 100 | 7.92 ± 0.65 | 29.8 ± 0.35 | – | – | –

Source: article PMC12567349, “Design and Optimization of Spiro-Isatin-Thiazolidinone Hybrids with Promising Anticancer Activity” (Pharmaceuticals, 2025)
